Data: ChEMBL document CHEMBL1201862, “PubChem BioAssay data set” (2004)
One block for each molecule: values may come before it. Active and inactive are the calls of the source.

Legend:
[1] = molecular target: Dual specificity protein phosphatase 3 (Homo sapiens, UniProt P51452); test: VHR1 inhibitor Ki determination, SAR follow-up, biochemical, colorimetric (AID 2004)
[2] = molecular target: Glutathione-S-transferase (Schistosoma japonicum, UniProt Q26513); test: biotin-GST/anti-GST TR-FRET signal inhibitors, dose response, artefact control for Vif-APOBEC3G degradation inhibitor project, biochemical (AID 1117362); format: functional
Hexokinase HKDC1 = Hexokinase HKDC1 (Homo sapiens, UniProt Q2TB90); test: HKDC1 hexokinase inhibitors, dose response, biochemical, W721R variant (AID 504729); format: functional
[3] = THP-1 cell cytotoxicity, dose response, cytotoxicity control for Vif-APOBEC3G degradation inhibitor project, THP-1 cells (AID 1117359); format: functional; settings: Human immunodeficiency virus 1, THP-1
X-box-binding protein 1 = X-box-binding protein 1 (Homo sapiens, UniProt P17861); format: functional, Cricetulus griseus;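 also: confirmatory dose-response counter-screen serving a CHOP assay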
Sequence of X-box-binding protein 1 (P17861 whole entry): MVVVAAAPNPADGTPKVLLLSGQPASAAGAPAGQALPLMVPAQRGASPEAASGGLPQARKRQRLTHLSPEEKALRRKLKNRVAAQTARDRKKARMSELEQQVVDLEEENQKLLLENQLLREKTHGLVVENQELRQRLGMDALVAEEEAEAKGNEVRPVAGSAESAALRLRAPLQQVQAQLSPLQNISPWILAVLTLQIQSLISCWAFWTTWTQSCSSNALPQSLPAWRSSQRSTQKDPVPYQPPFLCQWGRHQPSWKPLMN

Sequence of Dual specificity protein phosphatase 3 (P51452 whole entry): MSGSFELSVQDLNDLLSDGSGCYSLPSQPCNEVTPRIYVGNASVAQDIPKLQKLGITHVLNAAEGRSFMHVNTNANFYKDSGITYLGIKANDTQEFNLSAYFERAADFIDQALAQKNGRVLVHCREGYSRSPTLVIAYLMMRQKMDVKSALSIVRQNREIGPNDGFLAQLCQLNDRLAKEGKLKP
Sequence of Glutathione-S-transferase (Q26513 whole entry): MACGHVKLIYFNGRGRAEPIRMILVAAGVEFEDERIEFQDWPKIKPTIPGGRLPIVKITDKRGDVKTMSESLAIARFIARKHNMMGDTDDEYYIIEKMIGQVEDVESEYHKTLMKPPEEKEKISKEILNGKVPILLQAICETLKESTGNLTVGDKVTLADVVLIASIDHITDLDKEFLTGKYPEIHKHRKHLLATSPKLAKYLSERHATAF
Sequence of Hexokinase HKDC1 (Q2TB90 whole entry): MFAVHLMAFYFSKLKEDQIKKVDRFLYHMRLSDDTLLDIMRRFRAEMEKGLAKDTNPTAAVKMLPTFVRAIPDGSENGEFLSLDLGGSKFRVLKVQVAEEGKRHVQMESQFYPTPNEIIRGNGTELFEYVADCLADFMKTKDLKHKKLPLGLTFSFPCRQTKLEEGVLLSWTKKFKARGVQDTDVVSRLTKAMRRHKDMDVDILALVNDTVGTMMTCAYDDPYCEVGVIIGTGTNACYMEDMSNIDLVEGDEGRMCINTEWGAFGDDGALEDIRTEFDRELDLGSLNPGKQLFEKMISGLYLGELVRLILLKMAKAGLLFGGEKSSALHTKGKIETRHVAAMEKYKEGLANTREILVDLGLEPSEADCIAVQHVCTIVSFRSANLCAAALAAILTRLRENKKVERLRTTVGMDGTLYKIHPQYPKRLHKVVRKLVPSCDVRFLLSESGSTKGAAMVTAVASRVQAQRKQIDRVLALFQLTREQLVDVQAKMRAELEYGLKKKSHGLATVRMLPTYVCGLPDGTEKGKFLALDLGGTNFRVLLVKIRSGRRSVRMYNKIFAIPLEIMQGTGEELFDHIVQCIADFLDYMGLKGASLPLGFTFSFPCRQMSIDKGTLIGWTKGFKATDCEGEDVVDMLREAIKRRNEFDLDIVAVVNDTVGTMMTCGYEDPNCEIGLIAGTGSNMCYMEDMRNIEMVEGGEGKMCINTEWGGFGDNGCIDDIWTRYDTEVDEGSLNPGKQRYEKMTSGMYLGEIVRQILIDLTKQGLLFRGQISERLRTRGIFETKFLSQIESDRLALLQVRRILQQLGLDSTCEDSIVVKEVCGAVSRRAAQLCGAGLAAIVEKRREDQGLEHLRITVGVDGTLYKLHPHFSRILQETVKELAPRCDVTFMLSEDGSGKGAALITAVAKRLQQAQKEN

SMILES: O=C1/C(=C\c2ccc(-c3cccc(Cl)c3)o2)SC(=S)N1CCS(=O)(=O)O
- Ki [1]: 3.13 µM (active)

SMILES: O=C1C(CO)=C(CO)C(=O)c2c(O)ccc(O)c21
- IC50 [2]: > 100 µM (active)
- IC50 (Hexokinase HKDC1): 15.2 µM (active)
- CC50 [3]: 25.3 µM (active)

- Absolute IC50 (XBP1) (X-box-binding protein 1): 10 µM
SMILES: CC(C)Cc1ccc(C(C)C(=O)Nc2nccs2)cc1 (stereo not given)
